Measured values from patent US12410164B2, “Heterocyclic compounds and medical use thereof” (FONDAZIONE TELETHON, priority 2018, dated 2025).

Molecular target: F508del-CFTR (Homo sapiens, UniProt P13569, DEL508-508)
Assay: HS-YFP kinetic fluorescence (iodide quenching rate) assay in CFBE41o− cells
Type: cell-based
Design: expressed in transfected cells; host or cells: CFBE41o- cells with expression of F508del-CFTR and HS-YFP (generated as in Sondo et al. 2011)
Conditions: compound at 10 μM plus VX-809
Outline: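 CFBE41o- cells co-expressing F508del-CFTR and HS-YFP, treated 24 h with compound (0.1-0.2% DMSO), then stimulated with 20 μM forskolin plus 50 μM genistein. Fluorescence was read for 14 s during NaI injection. Background-subtracted, normalized traces were fitted exponentially to give maximum quenching rate (QR).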

[1] = Table 1, (QRTOT − QRVX)/QRVX, HS-YFP assay

Chain of F508del-CFTR (P13569 with tags, fused parts or gaps DEL508-508): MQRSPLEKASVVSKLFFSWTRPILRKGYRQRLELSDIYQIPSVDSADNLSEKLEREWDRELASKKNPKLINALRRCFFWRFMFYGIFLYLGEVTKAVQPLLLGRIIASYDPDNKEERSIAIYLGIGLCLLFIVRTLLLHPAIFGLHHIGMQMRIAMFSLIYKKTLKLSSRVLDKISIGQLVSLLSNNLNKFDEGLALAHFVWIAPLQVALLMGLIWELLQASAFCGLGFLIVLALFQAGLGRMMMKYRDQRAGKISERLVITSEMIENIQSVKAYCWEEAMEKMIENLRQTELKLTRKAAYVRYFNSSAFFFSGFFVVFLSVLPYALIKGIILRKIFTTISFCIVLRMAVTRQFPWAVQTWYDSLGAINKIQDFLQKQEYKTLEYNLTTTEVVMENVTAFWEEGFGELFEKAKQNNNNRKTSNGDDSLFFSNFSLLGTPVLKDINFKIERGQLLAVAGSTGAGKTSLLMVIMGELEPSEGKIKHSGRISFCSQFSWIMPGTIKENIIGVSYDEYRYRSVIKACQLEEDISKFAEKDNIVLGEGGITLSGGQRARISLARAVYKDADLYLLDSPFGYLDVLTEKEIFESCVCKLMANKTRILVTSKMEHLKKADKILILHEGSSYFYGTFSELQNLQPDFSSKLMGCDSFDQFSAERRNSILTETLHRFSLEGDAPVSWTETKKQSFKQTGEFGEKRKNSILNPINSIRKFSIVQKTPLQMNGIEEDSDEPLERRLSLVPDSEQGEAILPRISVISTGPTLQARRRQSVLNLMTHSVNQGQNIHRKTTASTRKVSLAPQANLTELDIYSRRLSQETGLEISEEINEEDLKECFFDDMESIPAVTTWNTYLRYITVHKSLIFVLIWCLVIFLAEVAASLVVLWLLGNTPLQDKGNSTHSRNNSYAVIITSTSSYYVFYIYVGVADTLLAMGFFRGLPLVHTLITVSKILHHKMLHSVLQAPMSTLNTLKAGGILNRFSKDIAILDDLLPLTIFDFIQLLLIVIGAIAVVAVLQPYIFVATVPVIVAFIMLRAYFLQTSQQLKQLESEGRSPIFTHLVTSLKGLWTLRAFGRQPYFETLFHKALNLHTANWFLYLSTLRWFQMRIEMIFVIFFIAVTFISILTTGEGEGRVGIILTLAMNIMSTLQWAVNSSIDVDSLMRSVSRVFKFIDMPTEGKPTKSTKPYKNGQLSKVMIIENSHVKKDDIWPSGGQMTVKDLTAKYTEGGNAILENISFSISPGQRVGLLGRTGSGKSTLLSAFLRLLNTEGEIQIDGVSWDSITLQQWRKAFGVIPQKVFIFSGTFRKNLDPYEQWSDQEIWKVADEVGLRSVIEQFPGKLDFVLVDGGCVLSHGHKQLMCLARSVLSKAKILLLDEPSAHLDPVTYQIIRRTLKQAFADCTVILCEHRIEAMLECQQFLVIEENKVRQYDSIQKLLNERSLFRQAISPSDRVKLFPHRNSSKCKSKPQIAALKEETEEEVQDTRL

Structure (SMILES) | AI (%) additivity index [1] | further results
Cc1cccc(Cn2c(C(N)=O)cc3c2-c2[nH]c(=O)c(S(=O)(=O)c4ccccc4)cc2CC3)c1 [PP093, 7-(Benzenesulfonyl)-1-[(3-methylphenyl)methyl]-8-oxo-4,5,8,9-tetrahydro-1H-pyrrolo[3,2-h]quinoline-2-carboxamide] | 25% | 
Cc1ccc(Cn2c(C(=O)O)cc3c2-c2[nH]c(=O)c(S(=O)(=O)c4ccccc4)cc2CC3)cc1C [PP094, 7-(Benzenesulfonyl)-1-[(3,4-dimethylphenyl)methyl]-8-oxo-4,5,8,9-tetrahydro-1H-pyrrolo[3,2-h]quinoline-2-carboxylic acid] | 47% | 
Cc1ccc(Cn2c(C(=O)O)c(Br)c3c2-c2[nH]c(=O)c(S(=O)(=O)c4ccccc4)cc2CC3)cc1C [PP095, 7-(Benzenesulfonyl)-3-bromo-1-[(3,4-dimethylphenyl)methyl]-8-oxo-4,5,8,9-tetrahydro-1H-pyrrolo[3,2-h]quinoline-2-carboxylic acid] | 11% | 
CC(C)NC(=O)c1cc2c(n1Cc1ccc(Br)cc1)-c1[nH]c(=O)c(S(=O)(=O)c3ccccc3)cc1CC2 [PP096, 7-(Benzenesulfonyl)-1-[(4-bromophenyl)methyl]-8-oxo-N-(propan-2-yl)-4,5,8,9-tetrahydro-1H-pyrrolo[3,2-h]quinoline-2-carboxamide] | 3% | 
CC(C)NC(=O)c1c(Br)c2c(n1Cc1ccc(Br)cc1)-c1[nH]c(=O)c(S(=O)(=O)c3ccccc3)cc1CC2 [PP097, 7-(Benzenesulfonyl)-3-bromo-1-[(4-bromophenyl)methyl]-8-oxo-N-(propan-2-yl)-4,5,8,9-tetrahydro-1H-pyrrolo[3,2-h]quinoline-2-carboxamide] | 99% | 
O=C(NC1CC1)c1cc2c(n1Cc1ccc(Br)cc1)-c1[nH]c(=O)c(S(=O)(=O)c3ccccc3)cc1CC2 [PP098, 7-(Benzenesulfonyl)-1-[(4-bromophenyl)methyl]-N-cyclopropyl-8-oxo-4,5,8,9-tetrahydro-1H-pyrrolo[3,2-h]quinoline-2-carboxamide] | 4% | 
O=C(NC1CC1)c1c(Br)c2c(n1Cc1ccc(Br)cc1)-c1[nH]c(=O)c(S(=O)(=O)c3ccccc3)cc1CC2 [PP099, 7-(Benzenesulfonyl)-3-bromo-1-[(4-bromophenyl)methyl]-N-cyclopropyl-8-oxo-4,5,8,9-tetrahydro-1H-pyrrolo[3,2-h]quinoline-2-carboxamide] | 82% | 
Cc1cccc(Cn2c(C(=O)NS(=O)(=O)c3ccccc3)c(Br)c3c2-c2[nH]c(=O)c(S(=O)(=O)c4ccccc4)cc2CC3)c1 [PP100, N,7-di(benzenesulfonyl)-3-bromo-1-[(3-methylphenyl)methyl]-8-oxo-4,5,8,9-tetrahydro-1H-pyrrolo[3,2-h]quinoline-2-carboxamide] | 47% | 
Cc1cccc(Cn2c(C(=O)NC(C)(C)C)c(Br)c3c2-c2[nH]c(=O)c(S(=O)(=O)c4ccccc4)cc2CC3)c1 [PP101, 7-(Benzenesulfonyl)-3-bromo-N-tert-butyl-1-[(3-methylphenyl)methyl]-8-oxo-4,5,8,9-tetrahydro-1H-pyrrolo[3,2-h]quinoline-2-carboxamide] | 249% | 
Cc1cccc(Cn2c(C(=O)Nc3cc(C(C)(C)C)on3)c(Br)c3c2-c2[nH]c(=O)c(S(=O)(=O)c4ccccc4)cc2CC3)c1 [PP102, 7-(Benzenesulfonyl)-3-bromo-N-(5-tert-butyl-1,2-oxazol-3-yl)-1-[(3-methylphenyl)methyl]-8-oxo-4,5,8,9-tetrahydro-1H-pyrrolo[3,2-h]quinoline-2-carboxamide] | 103% | 
Cc1cccc(Cn2c(C(=O)OC(C)C)cc3c2-c2[nH]c(=O)c(S(=O)(=O)c4ccccc4)cc2CC3)c1 [PP103, Propan-2-yl 7-(benzenesulfonyl)-1-[(3-methylphenyl)methyl]-8-oxo-4,5,8,9-tetrahydro-1H-pyrrolo[3,2-h]quinoline-2-carboxylate] | 284% | 
Cc1cccc(Cn2c(C(=O)OC(C)C)c(Br)c3c2-c2[nH]c(=O)c(S(=O)(=O)c4ccccc4)cc2CC3)c1 [PP104, Propan-2-yl 7-(benzenesulfonyl)-3-bromo-1-[(3-methylphenyl)methyl]-8-oxo-4,5,8,9-tetrahydro-1H-pyrrolo[3,2-h]quinoline-2-carboxylate] | 374% | 
CC(C)OC(=O)c1cc2c(n1CC1CC1)-c1[nH]c(=O)c(S(=O)(=O)c3ccccc3)cc1CC2 [PP105, Propan-2-yl 7-(benzenesulfonyl)-1-(cyclopropylmethyl)-8-oxo-4,5,8,9-tetrahydro-1H-pyrrolo[3,2-h]quinoline-2-carboxylate] | 174% | 
CC(C)OC(=O)c1c(Br)c2c(n1CC1CC1)-c1[nH]c(=O)c(S(=O)(=O)c3ccccc3)cc1CC2 [PP106, Propan-2-yl 7-(benzenesulfonyl)-3-bromo-1-(cyclopropylmethyl)-8-oxo-4,5,8,9-tetrahydro-1H-pyrrolo[3,2-h]quinoline-2-carboxylate] | 277% | 
CC(C)OC(=O)c1cc2c(n1Cc1ccc(F)cc1)-c1[nH]c(=O)c(S(=O)(=O)c3ccccc3)cc1CC2 [PP107, Propan-2-yl 7-(benzenesulfonyl)-1-[(4-fluorophenyl)methyl]-8-oxo-4,5,8,9-tetrahydro-1H-pyrrolo[3,2-h]quinoline-2-carboxylate] | 335% | 
CC(C)OC(=O)c1c(Br)c2c(n1Cc1ccc(F)cc1)-c1[nH]c(=O)c(S(=O)(=O)c3ccccc3)cc1CC2 [PP108, Propan-2-yl 7-(benzenesulfonyl)-3-bromo-1-[(4-fluorophenyl)methyl]-8-oxo-4,5,8,9-tetrahydro-1H-pyrrolo[3,2-h]quinoline-2-carboxylate] | 257% | 
CCOC(=O)c1nn(Cc2ccc(C)cc2)c2c1CCc1cc(S(=O)(=O)c3ccccc3)c(=O)[nH]c1-2 [PZ1, Ethyl 7-(benzenesulfonyl)-1-[(4-methylphenyl)methyl]-8-oxo-4,5,8,9-tetrahydro-1H-pyrazolo[4,3-h]quinoline-3-carboxylate] |  | AI (%) additivity index (Table 6, (QRTOT-QRVX)/QRVX): 88%
CCOC(=O)c1nn(Cc2cccc(C)c2)c2c1CCc1cc(S(=O)(=O)c3ccccc3)c(=O)[nH]c1-2 [PZ3, Ethyl 7-(benzenesulfonyl)-1-[(3-methylphenyl)methyl]-8-oxo-4,5,8,9-tetrahydro-1H-pyrazolo[4,3-h]quinoline-3-carboxylate] |  | AI (%) additivity index (Table 6, (QRTOT-QRVX)/QRVX): 163%
CCOC(=O)c1nn(Cc2ccc(Br)cc2)c2c1CCc1cc(S(=O)(=O)c3ccccc3)c(=O)[nH]c1-2 [PZ5, Ethyl 7-(benzenesulfonyl)-1-[(4-bromophenyl)methyl]-8-oxo-4,5,8,9-tetrahydro-1H-pyrazolo[4,3-h]quinoline-3-carboxylate] |  | AI (%) additivity index (Table 6, (QRTOT-QRVX)/QRVX): 64%
CCOC(=O)c1nn(Cc2ccc(C)c(C)c2)c2c1CCc1cc(S(=O)(=O)c3ccccc3)c(=O)[nH]c1-2 [PZ7, Ethyl 7-(benzenesulfonyl)-1-[(3,4-dimethylphenyl)methyl]-8-oxo-4,5,8,9-tetrahydro-1H-pyrazolo[4,3-h]quinoline-3-carboxylate] |  | AI (%) additivity index (Table 6, (QRTOT-QRVX)/QRVX): 104%
CCOC(=O)c1c2c(nn1Cc1ccc(C)c(C)c1)-c1[nH]c(=O)c(S(=O)(=O)c3ccccc3)cc1CC2 [PZ8, Ethyl 7-(benzenesulfonyl)-2-[(3,4-dimethylphenyl)methyl]-8-oxo-4,5,8,9-tetrahydro-2H-pyrazolo[4,3-h]quinoline-3-carboxylate] |  | AI (%) additivity index (Table 6, (QRTOT-QRVX)/QRVX): 21%
CCOC(=O)c1c(Br)cc2n1CCc1cc(S(=O)(=O)c3ccccc3)c(=O)[nH]c1-2 [QZN2, Ethyl 3-(benzenesulfonyl)-9-bromo-2-oxo-1,2,5,6-tetrahydropyrrolo[1,2-h][1,7]naphthyridine-8-carboxylate] |  | AI (%) additivity index (Table 4, (QRTOT − QRVX)/QRVX): 19%
CCOC(=O)c1ccc2n1CCCc1cc(S(=O)(=O)c3ccccc3)c(=O)[nH]c1-2 [QZN5, Ethyl 3-(benzenesulfonyl)-2-oxo-1,5,6,7-tetrahydro-2H-pyrido[2,3-c]pyrrolo[1,2-a]azepine-9-carboxylate] |  | AI (%) additivity index (Table 4, (QRTOT − QRVX)/QRVX): 19%
CCOC(=O)c1c(Br)cc2n1CCCc1cc(S(=O)(=O)c3ccccc3)c(=O)[nH]c1-2 [QZN6, Ethyl 3-(benzenesulfonyl)-10-bromo-2-oxo-1,5,6,7-tetrahydro-2H-pyrido[2,3-c]pyrrolo[1,2-a]azepine-9-carboxylate] |  | AI (%) additivity index (Table 4, (QRTOT − QRVX)/QRVX): 136%
CC(C)OC(=O)c1c(Br)cc2n1CCc1cc(S(=O)(=O)c3ccccc3)c(=O)[nH]c1-2 [QZN10, Propan-2-yl 3-(benzenesulfonyl)-9-bromo-2-oxo-1,2,5,6-tetrahydropyrrolo[1,2-h][1,7]naphthyridine-8-carboxylate] |  | AI (%) additivity index (Table 4, (QRTOT − QRVX)/QRVX): 101%
CC(C)OC(=O)c1ccc2n1CCCc1cc(S(=O)(=O)c3ccccc3)c(=O)[nH]c1-2 [QZN13, Propan-2-yl 3-(benzenesulfonyl)-2-oxo-1,5,6,7-tetrahydro-2H-pyrido[2,3-c]pyrrolo[1,2-a]azepine-9-carboxylate] |  | AI (%) additivity index (Table 4, (QRTOT − QRVX)/QRVX): 8%
CC(C)OC(=O)c1c(Br)cc2n1CCCc1cc(S(=O)(=O)c3ccccc3)c(=O)[nH]c1-2 [QZN14, Propan-2-yl 3-(benzenesulfonyl)-10-bromo-2-oxo-1,5,6,7-tetrahydro-2H-pyrido[2,3-c]pyrrolo[1,2-a]azepine-9-carboxylate] |  | AI (%) additivity index (Table 4, (QRTOT − QRVX)/QRVX): 141%
